Assay results as given in patent US20090186907A1, “Pyrazinones As Cellular Proliferation Inhibitors” (E.I. DuPont De Nemours and Company, priority 2006, published 2009).

How the values were obtained:
[1] = test system: neuroblastoma (N1E115) cells; experiment: Assay for inhibition of cell proliferation (MTT), neuroblastoma cells; format: cell-based, mouse; settings: for IC50: neuroblastoma (N1E115) cells, MTT; for N1E115 Ratio (paclitaxel/compound): ratio of paclitaxel IC50 to compound IC50, N1E115 cells
Procedure: (§1) Human rabdomyosarcoma (RD) and mouse neuroblastoma (N1E115) cell lines were obtained from the American Type Culture Collection (ATCC, Rockville, Md.). The RD cells were grown in Dulbecco's modified eagle medium (DMEM) supplemented with 4 mM glutamine, containing 10% fetal bovine serum (ATCC #30-2020) and supplemented with 1% penicillin and 1% streptomycin. When confluent, the cells were maintained by passage (about once per week) until needed. The N1E115 line was also cultured in DMEM with 4 mM glutamine containing 10% newborn calf serum (Gibco, Grand Island, N.Y.) and likewise maintained.
(§2) The proliferation of rhabdomyosarcoma cells was determined using a cell proliferation assay kit based on the formation of insoluble formazan crystals from 3-(4,5-dimethylthiazol-2-yl)-2,5-diphenyltetrazolium bromide (MTT). The rhabdomyosarcoma cells were cultured to a density of 10^5 cells per mL. The cell culture (100 μL) was dispensed into wells of a 96-well plate to 10^4 cells per well. The plate was incubated at 37° C. for 3 h until the cells firmly attached to the well surfaces.
(§3) A second 96-well round bottom plate was made up containing the test compounds, serially diluted to cover the concentration range of interest using the DMEM medium plus antibiotics. The final concentration of DMSO in which the compounds were initially dissolved was maintained at a constant 0.5% in each well and the volume of the compounds in the plate was 220 μL. Following the 3 h incubation the medium was removed from the plate containing the cells and replaced with 200 μL of the solutions containing the compounds. The cells were incubated for a further 96 h before the assessment of growth inhibition using MTT.
(§4) The cells were left bathing in 100 μL of the saline solution to which was added 100 μL of MTT in saline (12 mM). Incubation was continued for 4 h at 37° C. to produce the blue formazan color which was quantified by optical density measurements at 570 nm. Background correction of all test wells was performed by subtraction of the yellow MTT solution color measured at 570 nm in cell-free wells. The data were normalized to solvent only control wells.

[2] = test system: rhabdomyosarcoma (RD) cells; experiment: Assay for inhibition of cell proliferation (MTT), rhabdomyosarcoma cells; format: cell-based, human; settings: for IC50: rhabdomyosarcoma (RD) cells, MTT, 96 h incubation; for RD Ratio (paclitaxel/compound): ratio of paclitaxel IC50 to compound IC50, RD cells
Procedure: as §1, §2, §3, §4

IC50 ([1]; Mus musculus, N1E-115) [nM] | IC50 ([2]; Homo sapiens) [nM] | IC50 [1] [nM] | IC50 [2] [nM] | SMILES | N1E115 Ratio (paclitaxel/compound) [1] | RD Ratio (paclitaxel/compound) [2]
 |  | 16 | 2 | CNCCCOc1cc(F)c(-c2c(Cl)nc(-n3cccn3)c(=O)n2CC(C)C)c(F)c1.Cl [Compound 500] | 5.50 | 8.50
 |  | 70 | 70 | O=c1c(-n2cccn2)nc(Cl)c(-c2c(F)cccc2F)n1Cc1ccc(F)cc1 [Compound 272] | 1.26 | 0.24
 |  | 81 | 39.7 | CC[C@H](C)Cn1c(-c2c(F)cc(OCCN(C)C)cc2F)c(Cl)nc(-n2cccn2)c1=O [Compound 483] | 1.09 | 0.43
 |  | 62 | 57 | CC[C@H](C)Cn1c(-c2c(F)cc(OC(C)=O)cc2F)c(Cl)nc(-n2cccn2)c1=O [Compound 501] | 1.42 | 0.30
110 | 500 |  |  | CC(C)Cn1c(-c2c(F)cccc2F)c(Cl)nc(-n2cccn2)c1=O [Compound 1, 5-Chloro-6-(2,6-difluorophenyl)-1-(2-methylpropyl)-3-(1H-pyrazol-1-yl)-2(1H)-pyrazinone] | 0.80 | 0.03
 |  | 256 | 114 | CC[C@H](C)Cn1c(-c2c(F)cc(O)cc2F)c(Cl)nc(-n2cccn2)c1=O [Compound 503] | 0.34 | 0.15
 |  | 80 | 50 | CC[C@H](C)Cn1c(-c2ccc(F)cc2Cl)c(Cl)nc(-n2cccn2)c1=O [Compound 263] | 1.10 | 0.34
39 | 1.1 |  |  | CC[C@H](C)Cn1c(-c2c(F)cc(OC)cc2F)c(Cl)nc(-n2cccn2)c1=O [Compound 457, 5-Chloro-1-[(2S)-2-methylbutyl)-3-(1H-pyrazol-1-yl)-6-(2,6-difluoro-4-methoxyphenyl)-2(1H)-pyrazinone] | 2.26 | 15.45
 |  | 353 | 35 | CC(C)Cn1c(-c2c(F)cc(OCCCN(C)C)cc2F)c(Cl)nc(-n2cccn2)c1=O [Compound 495] | 0.25 | 0.49

Second part, the compound before the results:

SMILES | IC50 ([1]; Mus musculus, N1E-115) [nM] | IC50 ([2]; Homo sapiens) [nM] | IC50 [1] [nM] | IC50 [2] [nM] | N1E115 Ratio (paclitaxel/compound) [1] | RD Ratio (paclitaxel/compound) [2]
CCC(C)Cn1c(-c2c(F)cc(OCCN(C)C)cc2F)c(Cl)nc(-n2cccn2)c1=O (stereo not drawn) [Compound 479, 5-Chloro-6-[4-[2-(dimethylamino)ethoxy]-2,6-difluorophenyl]-1-(2-methylbutyl)-3-(1H-pyrazol-1-yl)-2(1H)-pyrazinone] | 25 | 200 |  |  | 3.52 | 0.09
CCC(C)Cn1c(-c2c(F)cc(OCCN3CCCC3)cc2F)c(Cl)nc(-n2cccn2)c1=O (stereo not drawn) [Compound 480] |  |  | 393 | 463 | 0.22 | 0.04
CCCCn1c(-c2c(F)cc(F)cc2F)c(Cl)nc(-c2ccccn2)c1=O [Compound 240] |  |  | 59 | 1670 | 1.49 | 0.01
CN(C)CCCOc1cc(F)c(-c2c(Cl)nc(-n3cccn3)c(=O)n2CC2CC2)c(F)c1 [Compound 481, 5-chloro-1-cyclopropylmethyl-6-[4-[3-(dimethylamino)propoxy]-2,6-difluorophenyl]-3-(1H-pyrazol-1-yl)-2(1H)-pyrazinone] | 30 | 3.2 |  |  | 2.93 | 5.37
CC[C@H](C)Cn1c(-c2c(F)cc(OCCCNC)cc2Cl)c(Cl)nc(-n2cccn2)c1=O [Compound 493, 5-chloro-6-[2-chloro-6-fluoro-4-[3-(methylamino)propoxy]phenyl]-1-[(2S)-2-methylbutyl]-3-(1H-pyrazol-1-yl)-2(1H)-pyrazinone] | 4.5 | 0.6 |  |  | 19.56 | 28.33
CC(Cn1c(-c2c(F)cc(OCCCN(C)C)cc2F)c(Cl)nc(-n2cccn2)c1=O)C(F)(F)F (stereo not drawn) [Compound 485, 5-chloro-6-[4-[3-(dimethylamino)propoxy]-2,6-difluorophenyl]-3-(1H-pyrazol-1-yl)-1-(3,3,3-trifluoro-2-methylpropyl)-2(1H)-pyrazinone] | 151 | 27.5 |  |  | 0.58 | 0.62
CC[C@H](C)Cn1c(-c2c(F)cc(OCCCN(C)C(C)=O)cc2F)c(Cl)nc(-n2cccn2)c1=O [Compound 499] |  |  | 12 | 10 | 7.33 | 1.70
CN(C)CCCOc1cc(F)c(-c2c(Cl)nc(-n3cccn3)c(=O)n2-c2cccc(F)c2)c(F)c1 [Compound 491] |  |  | 22 | 28.5 | 4.00 | 0.60
CCC(C)Cn1c(-c2ccc(OCCN(C)C)cc2F)c(Cl)nc(-n2cccn2)c1=O (stereo not drawn) [Compound 477] |  |  | 462 | 262 | 0.19 | 0.06
CC[C@H](C)Cn1c(-c2c(F)cc(OCCCN(C)C)cc2F)c(Cl)nc(-n2cccn2)c1=O [Compound 482, 5-chloro-6-[4-[3-(dimethylamino)propoxy]-2,6-difluorophenyl]-1-[(2S)-2-methylbutyl]-3-(1H-pyrazol-1-yl)-2(1H)-pyrazinone] | 2.6 | 1.5 |  |  | 33.85 | 11.33
CC[C@H](C)Cn1c(-c2c(F)cc(OCCCN(C)C)cc2F)c(Cl)nc(-n2ccc(C)n2)c1=O [Compound 498, 5-chloro-6-[4-[3-(dimethylamino)propoxy]-2,6-difluorophenyl]-1-[(2S)-2-methylbutyl]-3-(3-methyl-1H-pyrazol-1-yl)-2(1H)-pyrazinone] | 14 | 3.8 |  |  | 6.29 | 4.47
CNCCCOc1cc(F)c(-c2c(Cl)nc(-n3ccc(C)n3)c(=O)n2CC(C)C)c(F)c1 [Compound 496] |  |  | 90 | 43 | 0.98 | 0.40
CCC(C)Cn1c(-c2c(F)cc(F)cc2F)c(Cl)nc(C(N)=O)c1=O (stereo not drawn) [Compound 415] |  |  | 60 | 40 | 1.47 | 0.43
CC(C)Cn1c(-c2c(F)cccc2F)c(Cl)nc(-n2cncn2)c1=O [Compound 3] |  |  | 790 | 3010 | 0.11 | 0.01
CC[C@H](C)Cn1c(-c2c(F)cc(OC)cc2F)c(Cl)nc(-n2ccc(C)n2)c1=O [Compound 504] |  |  | 102 | 16.3 | 0.86 | 1.04
Cc1ccn(-c2nc(Cl)c(-c3c(F)cc(OCCCN(C)C)cc3F)n(CC(C)C)c2=O)n1 [Compound 497] |  |  | 180 | 77 | 0.49 | 0.22
CC[C@H](C)Cn1c(-c2c(F)cc(OCCN(C)C)cc2F)c(Cl)nc(C(N)=O)c1=O [Compound 484] |  |  | 285 | 10 | 0.31 | 1.70
CCC(C)Cn1c(-c2ccc(OCCN3CCCC3)cc2F)c(Cl)nc(-n2cccn2)c1=O (stereo not drawn) [Compound 478] |  |  | 1090 | 470 | 0.08 | 0.04
CC(=O)O[C@H]1C(=O)[C@@]2(C)[C@H]([C@H](OC(=O)c3ccccc3)[C@]3(O)C[C@H](OC(=O)[C@H](O)[C@@H](NC(=O)c4ccccc4)c4ccccc4)C(C)=C1C3(C)C)[C@]1(OC(C)=O)CO[C@@H]1C[C@@H]2O [paclitaxel, reference compound] | 88 | 17 |  |  |  | 
O=c1c(-n2cccn2)nc(Cl)c(-c2c(F)cc(F)cc2F)n1-c1cccc(F)c1 [Compound 324] |  |  | 147 | 50 | 0.60 | 0.34
